Test results as given in ChEMBL document CHEMBL1201862, “PubChem BioAssay data set” (2004).
Activity calls are given as the source filed them. For most assays here, no stated cut-off is given here; in the data, actives have a measured EC50 and inactives only a lower limit.

What was measured:
[1] = molecular target: T1, Zinc finger protein mex-5 (Caenorhabditis elegans, UniProt Q9XUB2); assay: potency of MEX-5 RNA-binding blockers – biochemical, C. elegans, fluorescence polarization, dose response (AID 1960)
T1 sequence (Q9XUB2 whole entry): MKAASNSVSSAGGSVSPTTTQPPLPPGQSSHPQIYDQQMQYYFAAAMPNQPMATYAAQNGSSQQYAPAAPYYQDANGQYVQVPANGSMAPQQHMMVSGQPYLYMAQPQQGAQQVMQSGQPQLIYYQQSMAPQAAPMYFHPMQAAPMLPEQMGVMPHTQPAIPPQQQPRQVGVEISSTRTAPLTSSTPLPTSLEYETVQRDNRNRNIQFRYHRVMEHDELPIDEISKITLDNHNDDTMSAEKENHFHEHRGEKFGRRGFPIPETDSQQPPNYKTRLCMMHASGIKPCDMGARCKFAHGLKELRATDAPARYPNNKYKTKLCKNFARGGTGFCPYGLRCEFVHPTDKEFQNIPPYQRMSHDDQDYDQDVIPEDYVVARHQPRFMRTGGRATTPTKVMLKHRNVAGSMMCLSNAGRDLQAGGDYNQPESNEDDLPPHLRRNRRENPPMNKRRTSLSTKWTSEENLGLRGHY

[2] = molecular target: T2, RNA-binding protein pos-1 (Caenorhabditis elegans, UniProt G5EF15); assay: disruptors of C. elegans POS-1 RNA interaction – biochemical, fluorescence polarization, dose response (AID 1964);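 further: purified POS-1 fused to maltose binding protein made in E. coli; potency of compounds blocking POS-1 binding to fluorescent RNA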
T2 sequence (G5EF15 whole entry): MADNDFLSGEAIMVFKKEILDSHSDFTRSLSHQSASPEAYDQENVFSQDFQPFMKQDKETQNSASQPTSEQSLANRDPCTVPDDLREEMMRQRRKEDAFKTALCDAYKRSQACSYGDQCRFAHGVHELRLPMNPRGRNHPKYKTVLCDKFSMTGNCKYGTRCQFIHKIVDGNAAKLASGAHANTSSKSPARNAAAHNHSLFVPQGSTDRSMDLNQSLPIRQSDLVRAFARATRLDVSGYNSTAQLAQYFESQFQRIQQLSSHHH

[3] = molecular target: T3, Rac GTPase-activating protein 1 (Homo sapiens, UniProt Q9H0H5); assay: blockers of MgcRacGAP-driven Rac1 GTP hydrolysis – biochemical, ADP Hunter fluorescence, primary and confirmatory, confirmation (AID 624330); assay type: functional
T3 sequence (Q9H0H5 whole entry): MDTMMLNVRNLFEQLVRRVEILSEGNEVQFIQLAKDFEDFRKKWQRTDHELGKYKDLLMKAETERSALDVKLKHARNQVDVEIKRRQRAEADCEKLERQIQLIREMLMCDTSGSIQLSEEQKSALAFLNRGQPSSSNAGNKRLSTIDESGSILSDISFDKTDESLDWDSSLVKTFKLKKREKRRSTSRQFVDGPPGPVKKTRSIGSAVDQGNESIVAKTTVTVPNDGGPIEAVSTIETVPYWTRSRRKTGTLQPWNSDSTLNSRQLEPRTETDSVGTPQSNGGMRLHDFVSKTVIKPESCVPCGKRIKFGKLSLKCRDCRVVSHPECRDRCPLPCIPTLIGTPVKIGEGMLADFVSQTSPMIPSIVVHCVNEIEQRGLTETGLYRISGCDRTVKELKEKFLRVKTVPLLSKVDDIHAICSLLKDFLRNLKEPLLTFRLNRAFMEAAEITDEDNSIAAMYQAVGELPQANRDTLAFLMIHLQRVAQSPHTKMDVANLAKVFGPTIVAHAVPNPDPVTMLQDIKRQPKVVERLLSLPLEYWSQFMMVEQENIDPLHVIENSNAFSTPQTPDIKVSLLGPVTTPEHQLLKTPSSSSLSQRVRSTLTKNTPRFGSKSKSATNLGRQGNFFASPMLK

[4] = molecular target: T4, Corticotropin-releasing factor receptor 2/Corticotropin-releasing factor-binding protein (Homo sapiens, UniProt P24387+Q13324); assay: Dose Response confirmation of uHTS hits for small molecule antagonists of the CRF-binding protein and CRF-R2 receptor complex.; assay type: functional; conditions: read-out: IC50_Mean
T4 sequence (Q13324 whole entry): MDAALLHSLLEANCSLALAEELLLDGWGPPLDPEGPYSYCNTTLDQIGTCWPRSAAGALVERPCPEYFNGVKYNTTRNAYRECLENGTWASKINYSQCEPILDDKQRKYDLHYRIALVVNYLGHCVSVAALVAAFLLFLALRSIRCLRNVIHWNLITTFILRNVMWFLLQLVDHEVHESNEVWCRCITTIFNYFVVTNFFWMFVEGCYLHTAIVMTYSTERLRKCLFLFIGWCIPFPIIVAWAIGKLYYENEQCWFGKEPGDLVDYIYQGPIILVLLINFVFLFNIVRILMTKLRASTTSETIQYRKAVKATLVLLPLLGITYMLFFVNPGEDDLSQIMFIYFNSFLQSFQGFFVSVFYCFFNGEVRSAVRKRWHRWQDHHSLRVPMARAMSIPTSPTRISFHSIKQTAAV
T4 sequence (P24387 whole entry): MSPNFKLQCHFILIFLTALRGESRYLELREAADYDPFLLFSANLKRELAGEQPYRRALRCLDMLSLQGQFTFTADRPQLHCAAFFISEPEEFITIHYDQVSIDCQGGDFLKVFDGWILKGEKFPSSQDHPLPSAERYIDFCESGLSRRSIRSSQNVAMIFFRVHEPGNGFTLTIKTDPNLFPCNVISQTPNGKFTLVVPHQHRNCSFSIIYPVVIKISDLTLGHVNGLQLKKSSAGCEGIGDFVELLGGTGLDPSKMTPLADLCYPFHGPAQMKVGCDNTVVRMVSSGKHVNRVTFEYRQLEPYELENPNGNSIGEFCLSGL

[5] = molecular target: T4, Corticotropin-releasing factor receptor 2/Corticotropin-releasing factor-binding protein; assay: activators of CRF receptor 2 with binding protein – uHTS hits, confirmation (AID 602473); assay type: functional; conditions: read-out: EC50_Mean
[6] = cells; assay type: functional, cell-based
[7] = cells; assay type: functional, cell-based; remark: listed apart in the source
[8] = molecular target: T5, Heat shock factor protein 1 (Mus musculus, UniProt P38532); assay: decrease of HSF1-responsive luciferase luminescence – cell-based, NIH3T3, dose retest, confirmation (AID 2382); assay type: functional;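 further: NIH3T3 fibroblasts with HSF1-driven luciferase reporter stressed by proteasome inhibitor MG132; luminescence from HSF1-driven luciferase expression after 8 hours of MG132 stress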
T5 sequence (P38532 whole entry): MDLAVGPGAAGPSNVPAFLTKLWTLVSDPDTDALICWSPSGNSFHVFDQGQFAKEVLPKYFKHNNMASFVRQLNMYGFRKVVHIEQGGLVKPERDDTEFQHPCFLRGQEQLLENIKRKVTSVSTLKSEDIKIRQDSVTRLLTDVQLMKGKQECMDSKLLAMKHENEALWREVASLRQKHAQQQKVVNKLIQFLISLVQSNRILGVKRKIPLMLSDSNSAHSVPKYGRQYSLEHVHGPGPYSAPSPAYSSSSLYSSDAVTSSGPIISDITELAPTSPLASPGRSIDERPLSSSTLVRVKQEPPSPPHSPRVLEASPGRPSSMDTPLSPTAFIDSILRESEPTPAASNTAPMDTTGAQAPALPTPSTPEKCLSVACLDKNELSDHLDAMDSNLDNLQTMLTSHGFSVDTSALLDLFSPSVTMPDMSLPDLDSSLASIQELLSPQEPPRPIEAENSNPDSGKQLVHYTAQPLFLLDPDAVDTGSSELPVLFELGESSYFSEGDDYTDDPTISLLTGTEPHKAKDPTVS

[9] = viability of uninfected HEp-2 cells – cell-based, HTS, cytotoxicity control for RSV inhibitor project, dose response (AID 2410); assay type: functional; conditions: human respiratory syncytial virus

O=C(O)C(=O)/C(=C\c1ccc(Cl)cc1)c1ccc2ccccc2n1
EC50 [1]: > 300 µM (not active) | EC50 [2]: > 300 µM (not active)

COc1cccc(CNc2ccc3c(c2)ncn3C)c1OC
IC50 [3]: 99.4 µM (active)

CC(=O)N1CCc2c(sc(NC(=O)C3CCCCC3)c2C(N)=O)C1
EC50 [1]: 30.1 µM (active) | EC50 [2]: 33.4 µM (active)

COc1ccc(-c2cccc(NS(=O)(=O)c3cccc([N+](=O)[O-])c3)c2)nn1
IC50 [4]: > 47.1 µM (inactive) | EC50 [5]: > 53 µM (inactive)

COc1ccc(N(CC(=O)Nc2cc(OC)ccc2OC)S(=O)(=O)c2c(C)noc2C)cc1
EC50 [6]: > 350 µM (not active) | EC50 [7]: > 350 µM (not active)

O=C(NN1C(=O)c2ccccc2NC1c1ccccn1)c1ccc([N+](=O)[O-])cc1 (configuration not stated)
EC50 [1]: 8.55 µM (active) | EC50 [2]: 198 µM (active)

Cc1nnc(-c2ccccc2)nc1N(C)C
EC50 [6]: > 350 µM (not active) | EC50 [7]: > 350 µM (not active)

COC(=O)c1ccccc1-n1cccc1C(=O)NP(=O)(N1CCOCC1)N1CCOCC1
EC50 [1]: > 300 µM (not active) | EC50 [2]: > 300 µM (not active)

N=c1c(C(=O)NC2CCCC2)cc2c(=O)n3ccccc3nc2n1Cc1ccccc1
EC50 [1]: 41.3 µM (active) | EC50 [8]: > 195 µM (not active) | EC50 [2]: 31.6 µM (active)

CN(c1ccc(O)cc1)c1nc(-c2cccs2)cs1
IC50 [3]: 70.4 µM (active)

O=C(O)C1=C[C@@H](c2ccc(Br)cc2)C[C@@H](OCc2ccc(CO)cc2)O1
IC50 [4]: > 47.1 µM (inactive) | EC50 [5]: > 53 µM (inactive)

Cn1c(CCNC(=O)c2ccco2)nc2cc(NC(=O)c3ccco3)ccc21
IC50 [4]: > 47.1 µM (inactive) | EC50 [5]: > 53 µM (inactive)

Cc1ccccc1NC(=O)c1ccccc1O
EC50 [6]: 50.3 µM (active) | EC50 [7]: > 350 µM (not active)

CC1(C)CC2CC(C)(CN2/C=C2/CCCCC2=O)C1 (configuration not stated)
IC50 [4]: > 47.1 µM (inactive) | EC50 [5]: > 53 µM (inactive)

Cc1ccc(S(=O)(=O)N2CCOC23CCN(C(=O)c2cc(Cl)ccc2Cl)CC3)cc1
CC50 [9]: 16.3 µM (active) | EC50 [6]: > 350 µM (not active) | EC50 [7]: > 350 µM (not active)

CN1CCCN(Cc2ccccc2C(F)(F)F)CC1
IC50 [3]: 83.3 µM (active)

Cc1cccc(C(=O)OC(C)CN2CCCC2)c1 (configuration not stated)
EC50 [6]: > 350 µM (not active) | EC50 [7]: > 350 µM (not active)

CCc1ccccc1N=C(S)NCC1CCN(c2ccc(OC)cc2)C1 (configuration not stated)
IC50 [3]: 43.3 µM (active)

Cn1cc(S(=O)(=O)Nc2ccc(Br)cc2F)c(=O)n(C)c1=O
IC50 [4]: > 47.1 µM (inactive) | EC50 [5]: > 53 µM (inactive)

COc1cc(/C=C/C(=O)OCC(=O)N2CC3(C)CC2CC(C)(C)C3)ccc1O (configuration not stated)
IC50 [3]: 49.6 µM (active)

COc1ccc(-n2c(NNC(C)=O)nc3sc4c(c3c2=O)CCCC4)cc1
EC50 [1]: > 300 µM (not active) | EC50 [2]: > 300 µM (not active)

CCCn1cc2c3c(cccc31)C1CC(C)CN(C)C1C2 (configuration not stated)
EC50 [1]: 29.6 µM (active) | EC50 [2]: 36 µM (active)

COc1ccc(CC(=O)N2CCN(C(=O)Cc3ccc(OC)cc3)CC2)cc1
EC50 [6]: > 350 µM (not active) | EC50 [7]: > 350 µM (not active)

CCOc1ccc(CN2CCN(S(=O)(=O)c3ccc(NC(C)=O)cc3)CC2)cc1
IC50 [3]: 221 µM (active)

COC(=O)C12CCc3c(ccc4cc(OC)ccc34)C1=CC(=O)C2 (configuration not stated)
IC50 [4]: > 47.1 µM (inactive) | EC50 [5]: > 53 µM (inactive)

COc1ccc(C2CC(c3ccc(Br)cc3)=NN2C(=O)CCC(=O)O)cc1OC (configuration not stated)
IC50 [4]: > 47.1 µM (inactive) | EC50 [5]: > 53 µM (inactive)

O=C(O)CCC(=O)Nc1ccc(Br)c(Cl)c1
IC50 [4]: < 0.368 µM (active) | EC50 [5]: > 53 µM (inactive)

Cc1cc(C)nc(NNC2=CC(=O)CC(C)(C)C2)n1
EC50 [1]: 10.9 µM (active) | EC50 [2]: 84.6 µM (active)

CCOc1cc(/C=N/NC(=O)NN(C)c2ncc(C(F)(F)F)cc2Cl)ccc1O
IC50 [3]: 88.4 µM (active)

Cc1ccccc1-c1nc2ccccc2c(=O)n1/N=C/c1ccccc1[N+](=O)[O-]
EC50 [6]: > 350 µM (not active) | EC50 [7]: > 350 µM (not active)

CCN(CC)CCNC1=CC(=O)OC12CCCCC2
EC50 [6]: > 350 µM (not active) | EC50 [7]: > 350 µM (not active)
